Measurements: the NIST ThermoML archive (doi:10.1021/je060068f)
Numbers after ± are expanded uncertainties.

Conditions: Liquid; pulse-heating method

SMILES | Critical pressure [kPa] | Critical temperature [K]
CCCCCOC(=O)c1ccccc1C(=O)OCCCCC | 1430 ± 50 | 811 ± 9
CCCOC(=O)c1ccccc1C(=O)OCCC [1,2-benzenedicarboxylic acid dipropyl ester] | 1900 ± 70 | 784 ± 9
CCCCC(CC)COC(=O)c1ccccc1C(=O)OCC(CC)CCCC (centres undefined) [bis(2-ethylhexyl) 1,2-benzenedicarboxylate] | 1070 ± 40 | 835 ± 9
CCCCOC(=O)c1ccccc1C(=O)OCCCC [dibutyl phthalate] | 1660 ± 60 | 797 ± 9
CCCCCCCCCCOC(=O)c1ccccc1C(=O)OCCCCCCCCCC [didecyl phthalate] | 940 ± 30 | 870 ± 10
CCOC(=O)c1ccccc1C(=O)OCC [diethyl phthalate] | 2260 ± 80 | 776 ± 9
CCCCCCCOC(=O)c1ccccc1C(=O)OCCCCCCC [diheptyl phthalate] | 1240 ± 40 | 830 ± 9
CCCCCCOC(=O)c1ccccc1C(=O)OCCCCCC [dihexyl phthalate] | 1340 ± 50 | 817 ± 9
COC(=O)c1ccccc1C(=O)OC [dimethyl 1,2-benzenedicarboxylate] | 2770 ± 100 | 772 ± 9
CCCCCCCCCOC(=O)c1ccccc1C(=O)OCCCCCCCCC [dinonyl phthalate] | 1020 ± 40 | 858 ± 9
CCCCCCCCOC(=O)c1ccccc1C(=O)OCCCCCCCC [dioctyl 1,2-benzenedicarboxylate] | 1080 ± 40 | 840 ± 9
CCCCCCCCCCCOC(=O)c1ccccc1C(=O)OCCCCCCCCCCC [diundecyl phthalate] | 890 ± 30 | 886 ± 10
